# Reference: patent US20220218852A1, “NOVEL RADIOLABELLED CXCR4-TARGETING COMPOUNDS FOR DIAGNOSIS AND THERAPY” (PROVINCIAL HEALTH SERVICES AUTHORITY, priority 2019, published 2022)
# Where two headings read alike, the source gives them in different places. Positions of bridges follow the written chain, without caps; N, C: chain ends. Non-standard residues stand in square brackets, D forms with d. Residues, ends and D or L forms follow the SMILES beside them. Groups on a side chain read outwards from the residue. *: point of attachment. DOTA = O=C(O)CN1CCN(CC(=O)O)CCN(CC(=O)*)CCN(CC(=O)O)CC1; 2Nal = N[C@@H](Cc1ccc2ccccc2c1)C(=O)O; Lys(iPr) = CC(C)NCCCC[C@H](N)C(=O)O
# Assays:
# Format in all cases: in vivo
# [1] = Biodistribution in GRANTA519 tumor-bearing mice; settings: male, NOD.Cg-Rag1^tm1MomII2rg^tm1Wjl/SzJ (NRG), mouse, iv, total radioactivity
# Description: (§1) For Daudi, Z138, GRANTA519 and Jeko1 xenografts, male NOD.Cg-Rag1^tm1MomII2rg^tm1Wjl/SzJ (NRG) mice were subcutaneously inoculated on the left flank with 5×10^6 cells (100 μL; 1:1 ratio of PBS/Matrigel) and tumors were grown to a size of 200-500 mm^3. For PC-3 xenografts, male NOD.Cg-Rag1^tm1MomII2rg^tm1Wjl/SzJ (NRG) mice were subcutaneously inoculated on the left flank with 5×10^6 PC-3 cells (100 μL; 1:1 ratio of PBS/Matrigel) and tumors were grown to a size of 200-400 mm^3.
# (§2) The mice were euthanized via CO2 inhalation while anesthetized with isoflurane. Tissues were harvested, washed in PBS, blotted dry, weighed, and measured on a Hidex AMG Automatic Gamma Counter.
# [2] = system: GRANTA519 mantle cell lymphoma xenografts; assay: Biodistribution in GRANTA519 tumor-bearing mice
# Description: as §1, §2
# [3] = system: GRANTA519 xenograft; assay: Dosimetry, Human Extrapolated from Mouse Model, based on GRANTA519 xenograft mice; settings: Lu-177, GRANTA519 xenograft mice
# From the text: The multi-time-point organ uptake obtained from biodistribution data of ^177Lu-labeled analogs was decayed to their appropriate time-point, fitted to a mono-exponential or bi-exponential model (fit chosen based on R2 and residuals) in Python (version 3.7). The area under the curve was used to compute residence times which were multiplied by model organ mass for human (NURBS model) and mouse (25 g MOBY mouse phantom) for use in OLINDA/EXM software (Hermes Medical Solution; version 2.0) that calculated dosimetry for an average mouse (Stabin et al., J Nucl Med. 2005, 46:1023-1027; Keenan et al., J Nucl Med. 2010, 51:471-476) and extrapolated to an average human male (Segars et al., J Nucl Med. 2001, 42:7; Stabin et al., J Nucl Med. 2012, 53:1807-13).
# [4] = GRANTA519 tumour, read-out: Biodistribution GRANTA519 (tumour)
# [5] = adrenals, read-out: Biodistribution Adrenals
# [6] = bone, read-out: Biodistribution Bone
# [7] = fat, read-out: Biodistribution Fat
# [8] = intestine, read-out: Biodistribution Intestine
# [9] = kidney, read-out: Biodistribution Kidney
# [10] = liver, read-out: Biodistribution Liver
# [11] = lung, read-out: Biodistribution Lung
# [12] = muscle, read-out: Biodistribution Muscle
# [13] = pancreas, read-out: Biodistribution Pancreas
# [14] = spleen, read-out: Biodistribution Spleen
# [15] = stomach, read-out: Biodistribution Stomach
# [16] = testes, read-out: Biodistribution Testes
# [17] = whole blood, read-out: Biodistribution Blood
compound,measurement,setting,value
"CC(C)NCCCC[C@@H]1NC(=O)[C@H](Cc2ccc(O)cc2)NC(=O)[C@H](Cc2ccccc2)NC(=O)CC[C@H](C(=O)N[C@@H](CCCCNC(C)C)C(=O)N[C@@H](CCCCNC(=O)[C@H](CCC(=O)O)NC(=O)[C@H](CCC(=O)O)NC(=O)[C@H](CCC(=O)O)NC(=O)CN2CCN(CC(=O)O)CCN(CC(=O)O)CCN(CC(=O)O)CC2)C(N)=O)NC(=O)CNC(=O)[C@H](Cc2ccc3ccccc3c2)NC(=O)[C@@H](CCCNC(=N)N)NC1=O [[^177Lu]Lu-BL02, metal not drawn] (FY[Lys(iPr)][dR][2Nal]G[dE][Lys(iPr)]K([Glu-Glu-Glu-DOTA])-NH2; lactam N-7)",tissue uptake at 1 h,"[1]; GRANTA519 tumour, 1 h, read-out: Biodistribution GRANTA519 (tumour)",6.83 %ID/g
same,tissue uptake at 1 h,"[1]; GRANTA519 tumour, 1 h blocked, read-out: Biodistribution GRANTA519 (tumour)",0.84 %ID/g
same,tissue uptake at 4 h,[1]; [4],3.22 %ID/g
same,tissue uptake at 24 h,[1]; [4],1.09 %ID/g
same,tissue uptake at 72 h,[1]; [4],0.353 %ID/g
same,tissue uptake at 1 h,"[1]; adrenals, 1 h, read-out: Biodistribution Adrenals",0.39 %ID/g
same,tissue uptake at 1 h,"[1]; adrenals, 1 h blocked, read-out: Biodistribution Adrenals",0.48 %ID/g
same,tissue uptake at 4 h,[1]; [5],0.1 %ID/g
same,tissue uptake at 24 h,[1]; [5],0.094 %ID/g
same,tissue uptake at 72 h,[1]; [5],0.346 %ID/g
same,tissue uptake at 1 h,"[1]; bone, 1 h, read-out: Biodistribution Bone",0.24 %ID/g
same,tissue uptake at 4 h,[1]; [6],0.09 %ID/g
same,tissue uptake at 24 h,[1]; [6],0.09 %ID/g
same,tissue uptake at 72 h,[1]; [6],0.061 %ID/g
same,tissue uptake at 1 h,"[1]; bone, 1 h blocked, read-out: Biodistribution Bone",0.41 %ID/g
same,tissue uptake at 1 h,"[1]; fat, 1 h, read-out: Biodistribution Fat",0.08 %ID/g
same,tissue uptake at 4 h,[1]; [7],0.01 %ID/g
same,tissue uptake at 24 h,[1]; [7],0.008 %ID/g
same,tissue uptake at 72 h,[1]; [7],0.006 %ID/g
same,tissue uptake at 1 h,"[1]; fat, with LY2510924 7.5 μg i.p. 15 min before radiotracer, 1 h blocked, read-out: Biodistribution Fat",0.16 %ID/g
same,tissue uptake at 1 h,"[1]; heart, 1 h, read-out: Biodistribution Heart",0.19 %ID/g
same,tissue uptake at 1 h,"[1]; heart, 1 h blocked, read-out: Biodistribution Heart",0.4 %ID/g
same,tissue uptake at 24 h,"[1]; heart, read-out: Biodistribution Heart",0.034 %ID/g
same,tissue uptake at 1 h,"[1]; intestine, 1 h, read-out: Biodistribution Intestine",0.28 %ID/g
same,tissue uptake at 1 h,"[1]; intestine, 1 h blocked, read-out: Biodistribution Intestine",0.58 %ID/g
same,tissue uptake at 24 h,[1]; [8],0.046 %ID/g
same,tissue uptake at 72 h,[1]; [8],0.017 %ID/g
same,tissue uptake at 1 h,"[1]; kidney, 1 h, read-out: Biodistribution Kidney",3.91 %ID/g
same,tissue uptake at 1 h,"[1]; kidney, 1 h blocked, read-out: Biodistribution Kidney",8.63 %ID/g
same,tissue uptake at 4 h,[1]; [9],2.98 %ID/g
same,tissue uptake at 24 h,[1]; [9],1.33 %ID/g
same,tissue uptake at 72 h,[1]; [9],0.573 %ID/g
same,tissue uptake at 1 h,"[1]; liver, 1 h, read-out: Biodistribution Liver",0.96 %ID/g
same,tissue uptake at 4 h,[1]; [10],0.87 %ID/g
same,tissue uptake at 24 h,[1]; [10],0.635 %ID/g
same,tissue uptake at 72 h,[1]; [10],0.413 %ID/g
same,tissue uptake at 1 h,"[1]; liver, with LY2510924 7.5 μg i.p. 15 min before radiotracer, 1 h blocked, read-out: Biodistribution Liver",1.07 %ID/g
same,tissue uptake at 1 h,"[1]; lung, 1 h, read-out: Biodistribution Lung",0.77 %ID/g
same,tissue uptake at 1 h,"[1]; lung, 1 h blocked, read-out: Biodistribution Lung",1.16 %ID/g
same,tissue uptake at 4 h,[1]; [11],0.27 %ID/g
same,tissue uptake at 24 h,[1]; [11],0.117 %ID/g
same,tissue uptake at 72 h,[1]; [11],0.06 %ID/g
same,tissue uptake at 1 h,"[1]; muscle, 1 h, read-out: Biodistribution Muscle",0.13 %ID/g
same,tissue uptake at 1 h,"[1]; muscle, 1 h blocked, read-out: Biodistribution Muscle",0.34 %ID/g
same,tissue uptake at 4 h,[1]; [12],0.04 %ID/g
same,tissue uptake at 24 h,[1]; [12],0.015 %ID/g
same,tissue uptake at 72 h,[1]; [12],0.007 %ID/g
same,tissue uptake at 1 h,"[1]; pancreas, 1 h, read-out: Biodistribution Pancreas",0.17 %ID/g
same,tissue uptake at 24 h,[1]; [13],0.028 %ID/g
same,tissue uptake at 72 h,[1]; [13],0.015 %ID/g
same,tissue uptake at 1 h,"[1]; pancreas, with LY2510924 7.5 μg i.p. 15 min before radiotracer, 1 h blocked, read-out: Biodistribution Pancreas",0.3 %ID/g
same,tissue uptake at 1 h,"[1]; spleen, 1 h, read-out: Biodistribution Spleen",0.49 %ID/g
same,tissue uptake at 4 h,[1]; [14],0.28 %ID/g
same,tissue uptake at 24 h,[1]; [14],0.321 %ID/g
same,tissue uptake at 72 h,[1]; [14],0.198 %ID/g
same,tissue uptake at 1 h,"[1]; spleen, with LY2510924 7.5 μg i.p. 15 min before radiotracer, 1 h blocked, read-out: Biodistribution Spleen",0.48 %ID/g
same,tissue uptake at 1 h,"[1]; stomach, 1 h, read-out: Biodistribution Stomach",0.1 %ID/g
same,tissue uptake at 4 h,[1]; [15],0.05 %ID/g
same,tissue uptake at 24 h,[1]; [15],0.206 %ID/g
same,tissue uptake at 72 h,[1]; [15],0.021 %ID/g
same,tissue uptake at 1 h,"[1]; stomach, with LY2510924 7.5 μg i.p. 15 min before radiotracer, 1 h blocked, read-out: Biodistribution Stomach",0.19 %ID/g
same,tissue uptake at 1 h,"[1]; testes, 1 h, read-out: Biodistribution Testes",0.21 %ID/g
same,tissue uptake at 1 h,"[1]; testes, 1 h blocked, read-out: Biodistribution Testes",0.32 %ID/g
same,tissue uptake at 24 h,[1]; [16],0.034 %ID/g
same,tissue uptake at 72 h,[1]; [16],0.034 %ID/g
same,tissue uptake at 1 h,"[1]; whole blood, 1 h, read-out: Biodistribution Blood",0.5 %ID/g
same,tissue uptake at 4 h,[1]; [17],0.02 %ID/g
same,tissue uptake at 24 h,[1]; [17],0.006 %ID/g
same,tissue uptake at 72 h,[1]; [17],0.002 %ID/g
same,tissue uptake at 1 h,"[1]; whole blood, with LY2510924 7.5 μg i.p. 15 min before radiotracer, 1 h blocked, read-out: Biodistribution Blood",1.14 %ID/g
same,Ratio Tumour:Blood,[2]; 1 h,14.18
same,Ratio Tumour:Bone,[2]; 1 h,28.95
same,Ratio Tumour:Liver,[2]; 1 h,7.10
same,Ratio Tumour:Lung,[2]; 1 h,9.08
same,Ratio Tumour:Muscle,[2]; 1 h,56.86
same,Ratio Tumour:Spleen,[2]; 1 h,14.20
same,Ratio Tumour:Blood,[2]; 1 h blocked,0.77
same,Ratio Tumour:Bone,[2]; 1 h blocked,2.16
same,Ratio Tumour:Liver,[2]; 1 h blocked,0.78
same,Ratio Tumour:Lung,[2]; 1 h blocked,0.74
same,Ratio Tumour:Muscle,[2]; 1 h blocked,3.18
same,Ratio Tumour:Spleen,[2]; 1 h blocked,1.77
same,Ratio Tumour:Blood,[2]; 4 h,119.44
same,Ratio Tumour:Bone,[2]; 4 h,34.26
same,Ratio Tumour:Liver,[2]; 4 h,3.75
same,Ratio Tumour:Lung,[2]; 4 h,12.56
same,Ratio Tumour:Muscle,[2]; 4 h,90.57
same,Ratio Tumour:Spleen,[2]; 4 h,11.98
same,Ratio Tumour:Blood,[2]; 24 h,206.07
same,Ratio Tumour:Bone,[2]; 24 h,12.33
same,Ratio Tumour:Liver,[2]; 24 h,1.72
same,Ratio Tumour:Lung,[2]; 24 h,9.91
same,Ratio Tumour:Muscle,[2]; 24 h,76.90
same,Ratio Tumour:Spleen,[2]; 24 h,3.78
same,Ratio Tumour:Blood,[2]; 72 h,126.69
same,Ratio Tumour:Bone,[2]; 72 h,5.88
same,Ratio Tumour:Liver,[2]; 72 h,0.86
same,Ratio Tumour:Lung,[2]; 72 h,6.60
same,Ratio Tumour:Muscle,[2]; 72 h,50.64
same,Ratio Tumour:Spleen,[2]; 72 h,1.53
same,"Absorbed Dose, Adrenals",[3]; Adrenals,0.00757 mGy/MBq
same,"Absorbed Dose, Brain",[3]; Brain,7.33e−05 mGy/MBq
same,"Absorbed Dose, Esophagus",[3]; Esophagus,0.00043 mGy/MBq
same,"Absorbed Dose, Eyes",[3]; Eyes,0.000245 mGy/MBq
same,"Absorbed Dose, Gallbladder Wall",[3]; Gallbladder Wall,0.000863 mGy/MBq
same,"Absorbed Dose, Heart",[3]; Heart,0.00148 mGy/MBq
same,"Absorbed Dose, Kidneys",[3]; Kidneys,0.0311 mGy/MBq
same,"Absorbed Dose, Left colon",[3]; Left colon,0.00141 mGy/MBq
same,"Absorbed Dose, Liver",[3]; Liver,0.0185 mGy/MBq
same,"Absorbed Dose, Lungs",[3]; Lungs,0.00333 mGy/MBq
same,"Absorbed Dose, Pancreas",[3]; Pancreas,0.000976 mGy/MBq
same,"Absorbed Dose, Prostate",[3]; Prostate,0.000284 mGy/MBq
same,"Absorbed Dose, Rectum",[3]; Rectum,0.000761 mGy/MBq
same,"Absorbed Dose, Red Marrow",[3]; Red Marrow,0.000343 mGy/MBq
same,"Absorbed Dose, Remainder of the Body",[3]; Remainder of the Body,0.000952 mGy/MBq
same,"Absorbed Dose, Right colon",[3]; Right colon,0.00095 mGy/MBq
same,"Absorbed Dose, Salivary Glands",[3]; Salivary Glands,0.000254 mGy/MBq
same,"Absorbed Dose, Skeleton",[3]; Skeleton,0.000444 mGy/MBq
same,"Absorbed Dose, Small Intestine",[3]; Small Intestine,0.00131 mGy/MBq
same,"Absorbed Dose, Spleen",[3]; Spleen,0.00859 mGy/MBq
same,"Absorbed Dose, Stomach Wall",[3]; Stomach Wall,0.000464 mGy/MBq
same,"Absorbed Dose, Testes",[3]; Testes,0.00245 mGy/MBq
same,"Absorbed Dose, Thymus",[3]; Thymus,0.000336 mGy/MBq
same,"Absorbed Dose, Thyroid",[3]; Thyroid,0.00029 mGy/MBq
same,"Absorbed Dose, Urin Blad",[3]; Urin Blad,0.000269 mGy/MBq
